{"source": "patent US9399662B2", "about": "“Concurrent chemotherapy and immunotherapy” (Duke University, priority 2005, dated 2016)", "test_system": "CD4+CD25+FoxP3+ regulatory T cells and CD8+ T cells", "test": "Flow cytometry of CD8+ T cell and Treg subsets during an immunochemotherapy cycle", "format": "in vivo, human", "conditions": "day 12 of temozolomide cycle (5/21 schedule), vaccine on day 19", "source_text": "To characterize the response of the various T cell populations during a cycle of temozolomide (5/21 schedule) and concurrently administered vaccine (day 19 on this example), we obtained peripheral blood on days 0, 3, 5, 12, 19, 23, 25 and 26. By flow analysis cytometry, we investigated the percentage of the CD8+ T cell and CD4+CD25+FoxP3+ regulatory T cells subsets during an immunochemotherapy cycle. All fluorescence-conjugated monoclonal antibodies (mAb) (PerCP-Cy5.5-CD3, FITC-CD8, APC-CD4 and PE-CD25) were purchased from BD Biosciences except the FITC-labeled mAb of FoxP3 was made by eBioscience. The surface and intracellular staining of peripheral blood cells were performed according to the standard procedures provided by the manufacturer. Results were analyzed by FACSCalibur flow cytometer using Cellquest Pro software (BD Biosciences). In contrast to the decline of the CD8+ T cell subset, the Treg population started to increase after the administration of temozolomide for 3 days and reached its peak (0.9% of total CD4^+ T cells) on day 12. The Tregs then began to drop until day 23 while the CD8^+ T cell numbers started to recover. At the end of the course, both of CD8^+ T cell and Treg populations recovered to pre-treatment levels."}
{"smiles": "Cn1nnc2c(C(N)=O)ncn2c1=O", "note": "[temozolomide]", "values": [{"measurement": "Treg population peak", "result": "0.9 % of total CD4+ T cells"}]}
